Reference: patent US11242346B2, “Mechanistic target of rapamycin signaling pathway inhibitors and therapeutic applications thereof” (SUZHOU KINTOR PHARMACEUTICALS, INC., priority 2016, dated 2022)

Key:
mTOR (FRAP1) = mTOR (FRAP1) (Homo sapiens, UniProt P42345); experiment: SelectScreen Profiling, Z'-LYTE kinase assay, mTOR (FRAP1); format: biochemical; conditions: 0.1 μM compound, ATP at Km, read-out: mTOR inh% @0.1 μM
From the text: (§1) Some of the example compounds were submitted to Life Technologies Corporation SelectScreen® Profiling Service to test their potency in inhibiting the kinase catalytic activities of mTOR, PI3Kα, VEGF2, FGFR1, HER1 (EGFR) and HER2. A concentration of ATP at the Km of the corresponding kinase was used for all assays. The mTOR (FRAP1), VEGF2, FGFR1, HER1 (EGFR) and HER2 assays used Z′-LYTE® technology. The PI3Kα assay used Adapta® technology. The symbol “inh %” as used herein generally refers to inhibition percentage.

PI3Kα = PI3Kα (Homo sapiens, UniProt P42336); experiment: SelectScreen Profiling, Adapta kinase assay, PI3Kα; format: biochemical; conditions: 0.1 μM compound, ATP at Km, read-out: PI3Kα inh % @0.1 μM
Chain of PI3Kα (P42336 whole entry): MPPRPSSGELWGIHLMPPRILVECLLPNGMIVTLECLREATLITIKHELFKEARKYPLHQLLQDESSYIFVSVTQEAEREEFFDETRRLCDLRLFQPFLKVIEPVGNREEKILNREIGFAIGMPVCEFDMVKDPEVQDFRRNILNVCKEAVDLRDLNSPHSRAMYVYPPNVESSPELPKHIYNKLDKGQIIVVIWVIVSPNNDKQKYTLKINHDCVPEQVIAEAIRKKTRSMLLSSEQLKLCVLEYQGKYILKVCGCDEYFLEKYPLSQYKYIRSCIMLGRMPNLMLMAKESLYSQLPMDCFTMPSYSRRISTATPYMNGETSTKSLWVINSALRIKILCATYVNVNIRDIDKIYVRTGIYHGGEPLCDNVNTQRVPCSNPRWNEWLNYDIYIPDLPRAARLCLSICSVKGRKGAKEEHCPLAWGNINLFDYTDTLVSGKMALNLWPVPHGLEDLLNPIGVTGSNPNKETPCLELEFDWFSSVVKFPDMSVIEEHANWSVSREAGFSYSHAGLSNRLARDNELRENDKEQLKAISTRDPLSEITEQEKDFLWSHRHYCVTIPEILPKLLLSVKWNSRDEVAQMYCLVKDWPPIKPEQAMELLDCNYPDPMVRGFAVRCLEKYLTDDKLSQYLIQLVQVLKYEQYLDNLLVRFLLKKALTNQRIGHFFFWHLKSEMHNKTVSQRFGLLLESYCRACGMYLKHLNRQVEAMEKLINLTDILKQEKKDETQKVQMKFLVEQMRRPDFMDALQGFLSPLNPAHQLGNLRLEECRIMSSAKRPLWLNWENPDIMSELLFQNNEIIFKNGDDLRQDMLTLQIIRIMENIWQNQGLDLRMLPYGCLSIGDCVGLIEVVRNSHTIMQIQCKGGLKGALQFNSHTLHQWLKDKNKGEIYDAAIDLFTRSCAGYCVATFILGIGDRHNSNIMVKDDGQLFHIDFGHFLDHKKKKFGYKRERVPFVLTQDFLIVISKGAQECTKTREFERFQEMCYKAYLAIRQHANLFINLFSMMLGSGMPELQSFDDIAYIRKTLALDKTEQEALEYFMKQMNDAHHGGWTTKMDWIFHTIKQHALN
Chain of PI3Kα (P27986 whole entry partner): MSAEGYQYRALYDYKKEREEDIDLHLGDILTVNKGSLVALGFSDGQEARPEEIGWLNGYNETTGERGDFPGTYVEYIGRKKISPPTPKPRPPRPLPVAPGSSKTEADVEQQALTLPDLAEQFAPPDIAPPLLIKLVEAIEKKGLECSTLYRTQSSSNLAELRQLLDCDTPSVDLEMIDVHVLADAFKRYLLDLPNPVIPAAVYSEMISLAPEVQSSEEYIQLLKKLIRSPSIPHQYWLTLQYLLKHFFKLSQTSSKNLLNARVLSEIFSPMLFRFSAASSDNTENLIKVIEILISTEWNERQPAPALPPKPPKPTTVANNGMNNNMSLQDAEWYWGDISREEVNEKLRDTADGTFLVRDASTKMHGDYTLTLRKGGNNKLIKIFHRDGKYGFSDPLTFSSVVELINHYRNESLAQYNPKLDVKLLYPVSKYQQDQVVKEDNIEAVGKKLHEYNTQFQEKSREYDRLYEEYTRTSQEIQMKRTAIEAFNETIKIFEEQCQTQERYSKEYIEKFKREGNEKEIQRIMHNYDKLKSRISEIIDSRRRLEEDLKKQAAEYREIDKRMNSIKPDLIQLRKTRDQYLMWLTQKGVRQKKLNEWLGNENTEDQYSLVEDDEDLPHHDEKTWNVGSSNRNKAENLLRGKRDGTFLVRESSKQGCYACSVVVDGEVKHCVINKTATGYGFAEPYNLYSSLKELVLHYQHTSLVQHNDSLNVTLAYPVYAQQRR

VEGF2 = VEGF2 (Homo sapiens, UniProt P35968); experiment: SelectScreen Profiling, Z'-LYTE kinase assay, VEGF2; format: biochemical; conditions: 1 μM compound, ATP at Km, read-out: VEGF 2 inh % @1 μM
Chain of VEGF2 (P35968 20-1356): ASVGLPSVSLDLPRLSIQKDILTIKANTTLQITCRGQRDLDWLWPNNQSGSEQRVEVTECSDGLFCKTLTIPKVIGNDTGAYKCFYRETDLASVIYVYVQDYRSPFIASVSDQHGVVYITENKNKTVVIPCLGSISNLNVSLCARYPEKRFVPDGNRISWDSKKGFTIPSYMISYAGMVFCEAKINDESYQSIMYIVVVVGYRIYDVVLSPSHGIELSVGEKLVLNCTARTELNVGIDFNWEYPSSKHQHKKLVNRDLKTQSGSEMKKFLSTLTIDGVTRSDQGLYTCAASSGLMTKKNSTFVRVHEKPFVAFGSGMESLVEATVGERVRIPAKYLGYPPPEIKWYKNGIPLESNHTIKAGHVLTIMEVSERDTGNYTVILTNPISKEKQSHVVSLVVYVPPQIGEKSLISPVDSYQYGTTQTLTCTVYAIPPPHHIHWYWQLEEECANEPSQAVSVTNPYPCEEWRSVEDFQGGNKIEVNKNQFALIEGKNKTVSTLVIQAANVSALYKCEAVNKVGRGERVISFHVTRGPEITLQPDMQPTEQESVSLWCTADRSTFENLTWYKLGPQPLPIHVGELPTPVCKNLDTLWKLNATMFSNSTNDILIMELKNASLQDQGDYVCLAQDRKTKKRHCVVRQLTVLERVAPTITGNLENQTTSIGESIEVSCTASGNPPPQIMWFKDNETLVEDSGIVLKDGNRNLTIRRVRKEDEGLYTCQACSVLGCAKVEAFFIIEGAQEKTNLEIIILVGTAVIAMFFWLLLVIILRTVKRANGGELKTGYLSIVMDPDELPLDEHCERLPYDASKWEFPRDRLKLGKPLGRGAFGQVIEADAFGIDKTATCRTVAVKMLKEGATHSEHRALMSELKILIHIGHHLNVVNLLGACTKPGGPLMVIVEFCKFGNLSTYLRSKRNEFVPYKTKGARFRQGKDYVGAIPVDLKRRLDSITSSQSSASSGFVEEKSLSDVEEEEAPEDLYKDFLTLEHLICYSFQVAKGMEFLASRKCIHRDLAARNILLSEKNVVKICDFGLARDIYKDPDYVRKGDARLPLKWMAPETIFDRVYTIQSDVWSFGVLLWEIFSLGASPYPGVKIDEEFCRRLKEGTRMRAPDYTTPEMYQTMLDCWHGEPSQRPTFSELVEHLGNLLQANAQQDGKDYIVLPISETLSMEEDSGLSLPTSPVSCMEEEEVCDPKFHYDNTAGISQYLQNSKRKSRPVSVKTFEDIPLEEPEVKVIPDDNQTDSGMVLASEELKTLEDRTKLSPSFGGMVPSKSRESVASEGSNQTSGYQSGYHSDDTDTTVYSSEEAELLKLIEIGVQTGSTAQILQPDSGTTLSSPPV
From the text: as §1

FGFR1 = FGFR1 (Homo sapiens, UniProt P11362); experiment: SelectScreen Profiling, Z'-LYTE kinase assay, FGFR1; format: biochemical; conditions: 1 μM compound, ATP at Km, read-out: FGFR 1 inh % @1 μM
From the text: as §1

HER1 (EGFR) = HER1 (EGFR) (Homo sapiens, UniProt P00533); experiment: SelectScreen Profiling, Z'-LYTE kinase assay, HER1 (EGFR); format: biochemical; conditions: 1 μM compound, ATP at Km, read-out: HER1 inh % @1 μM
From the text: as §1

HER2 = HER2 (Homo sapiens, UniProt P04626); experiment: SelectScreen Profiling, Z'-LYTE kinase assay, HER2; format: biochemical; conditions: 1 μM compound, ATP at Km, read-out: HER2 inh % @1 μM
Chain of HER2 (P04626 23-1255): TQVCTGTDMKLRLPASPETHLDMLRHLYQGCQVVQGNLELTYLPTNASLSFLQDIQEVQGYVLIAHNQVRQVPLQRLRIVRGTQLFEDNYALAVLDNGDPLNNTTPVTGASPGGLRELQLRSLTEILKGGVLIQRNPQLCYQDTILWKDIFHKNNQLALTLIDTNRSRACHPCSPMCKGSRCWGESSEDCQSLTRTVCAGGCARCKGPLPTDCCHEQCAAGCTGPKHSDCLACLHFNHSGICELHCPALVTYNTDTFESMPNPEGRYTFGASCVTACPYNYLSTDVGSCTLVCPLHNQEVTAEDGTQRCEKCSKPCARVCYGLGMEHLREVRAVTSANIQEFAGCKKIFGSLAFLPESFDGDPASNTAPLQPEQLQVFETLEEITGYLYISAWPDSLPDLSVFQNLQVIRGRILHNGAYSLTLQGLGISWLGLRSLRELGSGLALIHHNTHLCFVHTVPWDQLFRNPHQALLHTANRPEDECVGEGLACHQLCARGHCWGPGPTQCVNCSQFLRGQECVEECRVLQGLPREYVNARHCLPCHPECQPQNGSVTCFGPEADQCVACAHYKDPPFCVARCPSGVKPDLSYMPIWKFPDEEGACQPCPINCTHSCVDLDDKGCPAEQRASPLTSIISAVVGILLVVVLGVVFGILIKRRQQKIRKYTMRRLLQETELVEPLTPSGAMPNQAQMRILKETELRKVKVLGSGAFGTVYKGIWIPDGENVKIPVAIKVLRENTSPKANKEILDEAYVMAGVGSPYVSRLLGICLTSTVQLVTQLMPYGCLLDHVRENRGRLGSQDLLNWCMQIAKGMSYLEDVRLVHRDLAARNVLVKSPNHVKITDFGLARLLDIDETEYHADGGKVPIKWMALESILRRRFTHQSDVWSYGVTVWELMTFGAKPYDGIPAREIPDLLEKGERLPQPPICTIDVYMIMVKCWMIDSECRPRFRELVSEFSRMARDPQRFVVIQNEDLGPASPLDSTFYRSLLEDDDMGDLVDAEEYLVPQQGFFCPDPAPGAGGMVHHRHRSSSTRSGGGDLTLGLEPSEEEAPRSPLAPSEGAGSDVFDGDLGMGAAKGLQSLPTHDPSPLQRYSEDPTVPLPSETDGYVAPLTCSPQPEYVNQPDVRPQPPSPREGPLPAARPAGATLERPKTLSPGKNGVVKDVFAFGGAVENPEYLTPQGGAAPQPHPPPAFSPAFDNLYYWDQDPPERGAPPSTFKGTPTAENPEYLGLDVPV
From the text: as §1

[1] = tested on: mammalian tumor cell lines such as PC-3, LNCAP, U87, Huh-7, HepG2 and MDA-MB-468; experiment: Cell proliferation/survival MTT assay in tumor cell lines; format: cell-based; conditions: 5 days (120 h) culture; cell line not specified; read-out: IC50, inhibition of tumor cell growth (MTT)
Protocol: The cytotoxic or cytostatic activity of Formula I-III exemplary compounds was measured by establishing proliferating mammalian tumor cell lines such as PC-3, LNCAP, U87, Huh-7, HepG2 and MDA-MB-468 in a cell culture medium, adding a test compound, culturing the cells for a period of 5 days by measuring cell viability via MTT assays. Dose response data were obtained for each test compound and the degree of inhibition of tumor cell growth was expressed as an IC50 value. […] For example. For example, compounds of example 14, 15, 46,29, 45, 49, 122, 88, 54, 55, 58, 59, 63, 64, 66, 67, 68, 113, 86, 90.
PC-3 (or U87) cells were seeded in 96-well plates at low density (at 2,000 cells per well) in media supplemented with 10% FBS (growth media) and transferred to serum-free media (1% FBS) after 24 h. Designated concentrations of drug were added to each well. The cells were incubated for 120 h. At the end of drug exposure, 20 μL/well of MTT solution was added. After 4 h at 37° C. in a humidified 5% CO2 atmosphere, the absorbance at 490 nm was recorded by using a microplate reader. IC50 was calculated using GraphPad Prism version 5 for Windows. The curves were fit using a nonlinear regression model with a log (inhibitor) versus response formula.

[2] = Metabolic stability in human liver microsome (HLM); format: in vitro ADME; conditions: incubation with human liver microsome for 60 min
Protocol: (§2) Active mTOR inhibitors in enzymatic and/or cell-based assays herein were evaluated for pharmacokinetic properties. Preferable compounds are with pharmacokinetic properties of low clearance, long half-life and/or good oral bioavailability (Fpo). In vitro, selected example compounds were evaluated for metabolic stability by incubating with human liver microsome (HLM) for 60 min. Compounds that were metabolized slower (i.e. higher % remaining) are preferred. […] The more metabolic stable example compounds in the HLM assay were further evaluated for pharmacokinetic properties in vivo. In a representative experiment, selected example compounds were dosed to rats intravenously (IV, 5 mg/kg, 30% PEG400+30% PG+1% DMSO in saline) and orally (PO, 10 mg/kg, 2.4% DMSO+0.1% Tween80 in 0.5% CMC-Na), rat blood samples were taken at designed time points after dosing and analyzed for tested drug concentrations using LC-MS/MS. Pharmacokinetic parameters were derived from the time curve of drug concentrations.

[3] = Rat pharmacokinetic study (IV and PO); format: in vivo
Protocol: as §2

O=C(NCCO)Nc1ccc(-c2nc(N3CCOCC3)c3cccn3n2)cc1 [Example 29]
inhibition at 0.1 µM (mTOR (FRAP1)): 94% | inhibition at 0.1 µM (PI3Kα): 9% | inhibition at 1 µM (VEGF2): 11% | inhibition at 1 µM (FGFR1): -1% | inhibition at 1 µM (HER1 (EGFR)): -1% | inhibition at 1 µM (HER2): -7% | IC50 [1]: < 500 nM | metabolic stability in HLM [2]: metabolically stable | CL ([3]; PO 10 mg/kg): 99 mL/min/kg | AUC(0-t) ([3]; blood, IV 5 mg/kg): 16600 ng·h/mL | Cmax ([3]; blood, IV 5 mg/kg): 11900 ng/mL | MRT ([3]; blood, IV 5 mg/kg): 1.84 h | clearance ([3]; blood, IV 5 mg/kg): 4.83 mL/min/kg | half-life ([3]; blood, IV 5 mg/kg): 1.49 h | AUC(0-t) ([3]; blood, PO 10 mg/kg): 1650 ng·h/mL | Cmax ([3]; blood, PO 10 mg/kg): 380 ng/mL | MRT ([3]; blood, PO 10 mg/kg): 2.9 h | Tmax ([3]; blood, PO 10 mg/kg): 2 h | half-life ([3]; blood, PO 10 mg/kg): 1.12 h | bioavailability ([3]; blood, PO 10 mg/kg vs IV 5 mg/kg, read-out: Fpo (oral bioavailability)): 5%

O=C(Nc1ccc(-c2nc(N3CCOCC3)c3cccn3n2)cc1)NC1CC1 [Example 38]
inhibition at 0.1 µM (mTOR (FRAP1)): 69% | inhibition at 0.1 µM (PI3Kα): -8%

CN(C)CCNC(=O)c1ccc(NC(=O)Nc2ccc(-c3nc(N4CCOCC4)c4cccn4n3)cc2)cc1 [Example 45]
inhibition at 0.1 µM (mTOR (FRAP1)): 98% | inhibition at 0.1 µM (PI3Kα): 0% | inhibition at 1 µM (VEGF2): 10% | inhibition at 1 µM (FGFR1): 4% | inhibition at 1 µM (HER1 (EGFR)): -2% | inhibition at 1 µM (HER2): -9% | IC50 [1]: < 500 nM

CN(C)CCCNC(=O)c1ccc(NC(=O)Nc2ccc(-c3nc(N4CCOCC4)c4cccn4n3)cc2)cc1 [Example 47]
inhibition at 0.1 µM (mTOR (FRAP1)): 89% | inhibition at 1 µM (VEGF2): 10% | inhibition at 1 µM (FGFR1): 6% | inhibition at 1 µM (HER1 (EGFR)): 1% | inhibition at 1 µM (HER2): -5%

O=C(Nc1ccc(C(=O)NCCN2CCOCC2)cc1)Nc1ccc(-c2nc(N3CCOCC3)c3cccn3n2)cc1 [Example 48]
inhibition at 0.1 µM (mTOR (FRAP1)): 69% | inhibition at 0.1 µM (PI3Kα): -15%

C[C@@H](CO)NC(=O)Nc1ccc(-c2nc(N3CCOCC3)c3cccn3n2)cc1 [Example 52]
inhibition at 0.1 µM (mTOR (FRAP1)): 74% | inhibition at 0.1 µM (PI3Kα): 6%

O=C(Nc1ccc(C(=O)N2CC(O)C2)cc1)Nc1ccc(-c2nc(N3CCOCC3)c3cccn3n2)cc1 [Example 54]
inhibition at 0.1 µM (mTOR (FRAP1)): 95% | inhibition at 1 µM (VEGF2): 7% | inhibition at 1 µM (FGFR1): -4% | inhibition at 1 µM (HER1 (EGFR)): -1% | inhibition at 1 µM (HER2): 4% | IC50 [1]: < 500 nM

O=C(Nc1ccc(C(=O)N2CCC(O)CC2)cc1)Nc1ccc(-c2nc(N3CCOCC3)c3cccn3n2)cc1 [Example 55]
inhibition at 0.1 µM (mTOR (FRAP1)): 90% | inhibition at 1 µM (VEGF2): 11% | inhibition at 1 µM (FGFR1): -1% | inhibition at 1 µM (HER1 (EGFR)): 0% | inhibition at 1 µM (HER2): 5% | IC50 [1]: < 500 nM | metabolic stability in HLM [2]: metabolically stable

CN(C)[C@@H]1CCN(C(=O)c2ccc(NC(=O)Nc3ccc(-c4nc(N5CCOCC5)c5cccn5n4)cc3)cc2)C1 [Example 58]
inhibition at 0.1 µM (mTOR (FRAP1)): 97% | inhibition at 1 µM (VEGF2): 10% | inhibition at 1 µM (FGFR1): 4% | inhibition at 1 µM (HER1 (EGFR)): 1% | inhibition at 1 µM (HER2): -5% | IC50 [1]: < 500 nM

CN1CCCN(C(=O)c2ccc(NC(=O)Nc3ccc(-c4nc(N5CCOCC5)c5cccn5n4)cc3)cc2)CC1 [Example 59]
inhibition at 0.1 µM (mTOR (FRAP1)): 93% | inhibition at 1 µM (VEGF2): 10% | inhibition at 1 µM (FGFR1): 7% | inhibition at 1 µM (HER1 (EGFR)): 2% | inhibition at 1 µM (HER2): -2% | IC50 [1]: < 500 nM

O=C(Nc1ccc(-c2nc(N3CCOCC3)c3ccc(C(F)(F)F)n3n2)cc1)Nc1cccnc1 [Example 62]
inhibition at 0.1 µM (mTOR (FRAP1)): 53% | inhibition at 0.1 µM (PI3Kα): 10%

CN1CCN(C(=O)c2ccc(NC(=O)Nc3ccc(-c4nc(N5CCOCC5)c5ccc(C(F)(F)F)n5n4)cc3)cc2)CC1 [Example 65]
inhibition at 0.1 µM (mTOR (FRAP1)): 63% | inhibition at 0.1 µM (PI3Kα): 19%

CC(C)(C)C(=O)OCCNC(=O)Nc1ccc(-c2nc(N3C[C@H]4CC[C@@H](C3)O4)c3cccn3n2)cc1 [Example 133]
inhibition at 0.1 µM (mTOR (FRAP1)): 90% | inhibition at 1 µM (VEGF2): 9% | inhibition at 1 µM (FGFR1): 4% | inhibition at 1 µM (HER1 (EGFR)): 1% | inhibition at 1 µM (HER2): 5%
